Test results reported in the supplement of paper PMC10307832.

Columns and labels:
Assay in all cases: relative viability (nuclei count vs DMSO), 5 days (fraction); higher = more cells survive
[1] = compound: C1CN(CCC1C(C2=CC3=C(C=C2)OCO3)(C4=CC5=C(C=C4)OCO5)O)C(=O)OC6=CC=C(C=C6)[N+](=O)[O-] [JZL-184] + CCNC(=O)c1noc(-c2cc(C(C)C)c(O)cc2O)c1-c1ccc(CN2CCOCC2)cc1 [Luminespib] (partner 0.01 µM)
Procedure, shortened: (§1)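 One day after seeding in 1536-well plates, lung cancer cell lines were dosed by pin tool. Dosing was either single-drug or a fixed anchor-drug dose plus five library-drug doses (not always all listed) in √10 steps. After 5 days, nuclei were stained in one fix-and-stain step and counted on 4× images, and relative viability is the nuclei count of treated wells over that of vehicle wells, given as the median of duplicate plates.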

[2] = compound: C1CN(CCC1C(C2=CC3=C(C=C2)OCO3)(C4=CC5=C(C=C4)OCO5)O)C(=O)OC6=CC=C(C=C6)[N+](=O)[O-] [JZL-184] + COc1cc2c(Oc3ccc(NC(=O)C4(C(=O)Nc5ccc(F)cc5)CC4)cc3F)ccnc2cc1OCCCN1CCOCC1 [Foretinib] (partner 0.25 µM)
Procedure, shortened: as §1

[3] = compound: C1CN(CCC1C(C2=CC3=C(C=C2)OCO3)(C4=CC5=C(C=C4)OCO5)O)C(=O)OC6=CC=C(C=C6)[N+](=O)[O-] [JZL-184] + COc1cccc2cc(-c3nc([C@H]4CC[C@H](C(=O)O)CC4)n4ncnc(N)c34)[nH]c12 [OSI-027] (partner 0.5 µM)
Procedure, shortened: as §1

[4] = compound: C1CN(CCC1C(C2=CC3=C(C=C2)OCO3)(C4=CC5=C(C=C4)OCO5)O)C(=O)OC6=CC=C(C=C6)[N+](=O)[O-] [JZL-184] + Cc1nc(NC(=O)N2CCC[C@H]2C(N)=O)sc1-c1ccnc(C(C)(C)C(F)(F)F)c1 [Alpelisib] (partner 2 µM)
Procedure, shortened: as §1

[5] = compound: C1CN(CCC1C(C2=CC3=C(C=C2)OCO3)(C4=CC5=C(C=C4)OCO5)O)C(=O)OC6=CC=C(C=C6)[N+](=O)[O-] [JZL-184] + Nc1ncn([C@H]2C[C@H](O)[C@@H](CO)O2)c(=O)n1 [Decitabine] (partner 2 µM)
Procedure, shortened: as §1

Cell Line | relative viability ([1]; first compound 0.04 µM) | relative viability ([1]; first compound 0.4 µM) | relative viability ([1]; first compound 1.265 µM) | relative viability ([1]; first compound 4 µM) | relative viability ([2]; first compound 0.04 µM) | relative viability ([2]; first compound 0.4 µM) | relative viability ([2]; first compound 1.265 µM) | relative viability ([2]; first compound 4 µM) | relative viability ([3]; first compound 0.04 µM) | relative viability ([3]; first compound 0.4 µM) | relative viability ([3]; first compound 1.265 µM) | relative viability ([3]; first compound 4 µM) | relative viability ([4]; first compound 0.04 µM) | relative viability ([4]; first compound 0.4 µM) | relative viability ([4]; first compound 1.265 µM) | relative viability ([4]; first compound 4 µM) | relative viability ([5]; first compound 0.04 µM) | relative viability ([5]; first compound 0.4 µM) | relative viability ([5]; first compound 1.265 µM) | relative viability ([5]; first compound 4 µM)
CAL-12T | 0.478 | 0.449 | 0.849 | 0.395 | 1.22 | 1.07 | 1.07 | 1.2 | 0.897 | 0.648 | 0.673 | 0.614 | 1.5 | 1.39 | 1.08 | 1.17 | – | – | – | –
NCI-H1792 | 0.401 | 0.383 | 0.56 | 0.408 | – | – | – | – | 0.683 | 0.744 | 0.779 | 0.62 | 0.835 | 0.613 | 0.762 | 0.757 | 0.668 | 0.503 | 0.529 | 0.597
HCC-366 | – | – | – | – | 0.986 | 0.889 | 0.931 | 0.958 | 1.04 | 0.868 | 0.97 | 0.825 | 0.355 | 0.436 | 0.506 | 0.358 | 0.348 | 0.357 | 0.336 | 0.314
HCC-44 | 1.59 | 0.973 | 1.09 | 1.09 | – | – | – | – | 0.628 | 0.366 | 0.689 | 0.471 | 0.671 | 0.8 | 0.749 | 0.74 | 1.05 | 0.942 | 0.964 | 0.99
NCI-H1703 | – | – | – | – | 0.356 | 0.317 | 0.402 | 0.295 | – | – | – | – | 0.335 | 0.295 | 0.389 | 0.294 | – | – | – | –
NCI-H1650 | 0.225 | 0.207 | 0.216 | 0.178 | 1.22 | 1.03 | 1.35 | 0.898 | 0.674 | 0.504 | 0.837 | 0.608 | – | – | – | – | 0.405 | 0.464 | 0.471 | 0.425
HCC-78 | – | – | – | – | 0.558 | 0.526 | 0.515 | 0.475 | 0.348 | 0.326 | 0.379 | 0.382 | 0.325 | 0.317 | 0.375 | 0.315 | 0.77 | – | 0.793 | 0.646
NCI-H522 | 1.29 | 1.14 | 1.18 | 1.29 | – | – | – | – | 0.906 | 0.748 | 0.748 | 0.748 | – | – | – | – | 0.689 | 0.615 | 0.685 | 0.611
SW 900 | 0.16 | 0.18 | 0.18 | 0.196 | 1.1 | 0.858 | 0.824 | 0.799 | 0.596 | 0.536 | 0.566 | 0.5 | – | – | – | – | 0.465 | 0.416 | 0.465 | 0.451
NCI-H2228 | 0.142 | 0.1 | 0.168 | 0.122 | 1.07 | 0.701 | 0.992 | 0.803 | 0.643 | 0.51 | 0.613 | 0.632 | 0.894 | 0.726 | 0.709 | 0.789 | – | – | – | –
